The numbers were not newly measured in patent publication US12539323B2, “Anti-psychotic composition and treatment methods” (priority 2017, dated 2026), which cites them from elsewhere.

The subject of this data set is symptoms of schizophrenia. Conditions: pooled meta-analysis of celecoxib and aspirin, eight studies.

In the case of `CC(=O)Oc1ccccc1C(=O)O` [aspirin], the “Effect on negative symptoms of schizophrenia” value is “no benefit” and the “Hedges' g, positive symptoms” value is −0.189. Besides, for the setting “trend level”, the “Hedges' g, total symptoms” value is reported as −0.236.
